# Measurements published in patent US4808584A, “Quinolinecarboxylic acid derivatives and antibacterial agent containing the same” (Kanebo, Ltd., priority 1987, dated 1989).
# Where a name gives a salt, the structure may show the parent alone. Read-outs that look alike come from different tables or passages of the source.
# Key:
# Test in all cases: Minimum inhibitory concentration (MIC)
# Format in all cases: cell-based
# [1] = tested on: Acinetobacter calcoaceticus AC 54; details: for MIC: Acinetobacter calcoaceticus, AC54, Acinetobacter calcoaceticus AC 54, Gram -
# Procedure: (§1) The compounds of the present invention (A, C, E, F, G, H and I) and ofloxacin as control were dissolved in 0.1N aqueous potassium hydroxide to prepare a solution of 5000 μg/ml in concentration. The compounds of the present invention (B, D and J) were dissolved in sterilized distilled water to prepare a solution of 5000 μg/ml in concentration. Each solution was diluted with sterilized distilled water to prepare a standard solution with a concentration of each test compound: 1000 μg/ml. The test was carried out by a method approved by Japan Society of Chemotherapy [cf. Chemotherapy, 29, 76-79 (1981)(TOKYO)].
# [2] = tested on: Bacillus subtilis ATCC 6633
# Procedure: as §1
# [3] = tested on: Citrobacter freundii NIHJ 10018-68; details: NIHJ10018; Citrobacter freundii NIHJ 10018-68, Gram -
# Procedure: as §1
# [4] = tested on: Enterobacter aerogenes ATCC 13048; details: for MIC: Klebsiella aerogenes, ATCC13048, Enterobacter aerogenes ATCC 13048, Gram -
# Procedure: as §1
# Enterobacter cloacae 963 = details: Enterobacter cloacae 963, Gram -
# Procedure: as §1
# Escherichia coli KC-14 = details: KC14; Escherichia coli KC-14, Gram -
# Procedure: as §1
# [5] = tested on: Escherichia coli NIHJ JC-2; details: NIHJJC2; Escherichia coli NIHJ JC-2, Gram -
# Procedure: as §1
# [6] = tested on: Micrococcus luteus ATCC 9341; details: ATCC9341; Micrococcus luteus ATCC 9341, Gram +
# Procedure: as §1
# [7] = tested on: Morganella morganii IFO 3848; details: IFO3848; Morganella morganii IFO 3848, Gram -
# Procedure: as §1
# [8] = tested on: Proteus mirabilis IFO 3849; details: IFO3849; Proteus mirabilis IFO 3849, Gram -
# Procedure: as §1
# Proteus vulgaris OX-19 = tested on: Proteus vulgaris OX-19
# Procedure: as §1
# [9] = tested on: Pseudomonas aeruginosa E-2; details: E2; Pseudomonas aeruginosa E-2, Gram -
# Procedure: as §1
# [10] = tested on: Pseudomonas aeruginosa IFO 3445; details: Pseudomonas aeruginosa, IFO3445, Pseudomonas aeruginosa IFO 3445, Gram -
# Procedure: as §1
# [11] = tested on: Pseudomonas aeruginosa NCTC 10490; details: for MIC: Pseudomonas aeruginosa, NCTC10490, Pseudomonas aeruginosa NCTC 10490, Gram -
# Procedure: as §1
# [12] = tested on: Salmonella typhimurium IID 971; details: Salmonella typhimurium IID 971, Gram -; for MIC: Salmonella enterica, read-out: Minimum inhibitory concentration (MIC)
# Procedure: as §1
# [13] = tested on: Serratia marcescens IAM 1184; details: Serratia marcescens, IAM1184, Serratia marcescens IAM 1184, Gram -
# Procedure: as §1
# Shigella sonnei EW-33 = details: EW33; Shigella sonnei EW-33, Gram -
# Procedure: as §1
# [14] = tested on: Staphylococcus aureus FDA 209P JC-1; details: FDA209P; Staphylococcus aureus FDA 209P JC-1, Gram +
# Procedure: as §1
# [15] = tested on: Staphylococcus aureus IID 803
# Procedure: as §1
# [16] = tested on: Staphylococcus epidermidis IAM-1296; details: for MIC: Staphylococcus epidermidis, IAM1296, Staphylococcus epidermidis IAM-1296, Gram +
# Procedure: as §1
# [17] = tested on: Streptococcus faecalis IID 682; details: Enterococcus faecalis, IID682, Streptococcus faecalis IID 682, Gram +
# Procedure: as §1
# [18] = tested on: Klebsiella pneumoniae PCI 602; details: for MIC: Klebsiella pneumoniae
# Procedure: as §1
# [19] = ATCC6633, Bacillus subtilis ATCC 6633, Gram +, read-out: Minimum inhibitory concentration (MIC)
# [20] = OX19, Proteus vulgaris OX-19, Gram -, read-out: Minimum inhibitory concentration (MIC)
# [21] = IID803, Staphylococcus aureus IID 803, Gram +, read-out: Minimum inhibitory concentration (MIC)
# [22] = PCI602, Klebsiella pneumoniae PCI 602, Gram -, read-out: Minimum inhibitory concentration (MIC)
SMILES,MIC [1] [µg/mL],"MIC [2, 19] [µg/mL]",MIC [3] [µg/mL],MIC [4] [µg/mL],MIC (Enterobacter cloacae 963) [µg/mL],MIC (Escherichia coli KC-14) [µg/mL],MIC [5] [µg/mL],MIC [6] [µg/mL],MIC [7] [µg/mL],MIC [8] [µg/mL],MIC (Proteus vulgaris OX-19; [20]) [µg/mL],MIC [9] [µg/mL],MIC [10] [µg/mL],MIC [11] [µg/mL],MIC [12] [µg/mL],MIC [13] [µg/mL],MIC (Shigella sonnei EW-33) [µg/mL],MIC [14] [µg/mL],MIC [16] [µg/mL],MIC [17] [µg/mL],further results
"CN1CCN(c2c(F)cc3c(=O)c(C(=O)O)c4scc5n4c3c2OC5)CC1 [Compound (A), 9,1-Epoxymethano-7-fluoro-8-(4-methyl-1-piperazinyl)-5-oxo-5H-thiazolo[3,2-a]quinoline-4-carboxylic acid]",0.2,0.1,0.2,0.1,0.1,0.1,0.1,1.56,0.1,0.2,0.05,0.78,0.78,0.78,0.05,0.2,0.05,0.2,0.39,0.39,"MIC [15, 21]: 0.2 µg/mL"
"O=C(O)c1c(=O)c2cc(F)c(N3CCNCC3)c3c2n2c(csc12)CO3 [Compound (C), 9,1-Epoxymethano-7-fluoro-8-(1-piperazinyl)-5-oxo-5H-thiazolo[3,2-a]quinoline-4-carboxylic acid]",0.78,0.2,0.2,0.1,0.2,0.1,0.1,3.13,0.1,0.2,0.1,0.78,0.78,0.39,0.05,0.39,0.05,0.39,0.78,0.78,"MIC [18, 22]: 0.05 µg/mL; MIC [15, 21]: 0.39 µg/mL"
"O=C(O)c1c(=O)c2cc(F)c(N3CCNCC3)c3c2n2c(csc12)CO3 [Compound (D), 9,1-Epoxymethano-7-fluoro-8-(1-piperazinyl)-5-oxo-5H-thiazolo[3,2-a]quinoline-4-carboxylic acid.hydrochloride.1/2hydrate]",,,,,,,,,,,,,,,,,,,,,"Minimum inhibitory concentration (MIC) ([1]; Acinetobacter calcoaceticus AC 54, Gram -): 1.56 µg/mL; Minimum inhibitory concentration (MIC) ([4]; Enterobacter aerogenes ATCC 13048, Gram -): 0.20 µg/mL; Minimum inhibitory concentration (MIC) ([18]; Klebsiella pneumoniae PCI 602, Gram -): 0.025 µg/mL; Minimum inhibitory concentration (MIC) ([11]; Pseudomonas aeruginosa NCTC 10490, Gram -): 0.78 µg/mL; Minimum inhibitory concentration (MIC) [12]: 0.10 µg/mL; Minimum inhibitory concentration (MIC) ([16]; Staphylococcus epidermidis IAM-1296, Gram +): 1.56 µg/mL"
"CC1CN(c2c(F)cc3c(=O)c(C(=O)O)c4scc5n4c3c2OC5)CCN1 (stereo not drawn) [Compound (E), 9,1-Epoxymethano-7-fluoro-8-(3-methyl-1-piperazinyl)-5-oxo-5H-thiazolo[3,2-a]quinoline-4-carboxylic acid.1/4hydrate]",0.78,0.1,0.78,0.1,0.2,0.1,0.2,3.13,0.1,0.2,,0.78,1.56,0.78,0.1,0.39,0.1,0.2,0.78,0.78,"MIC [18, 22]: 0.025 µg/mL; MIC (Proteus vulgaris OX-19; Proteus vulgaris, OX19, read-out: Minimum inhibitory concentration (MIC)): 0.05 µg/mL; MIC [15, 21]: 0.2 µg/mL"
"O=C(O)c1c(=O)c2cc(F)c(N3CCN(O)CC3)c3c2n2c(csc12)CO3 [Compound (F), 9,1-Epoxymethano-7-fluoro-8-(4-hydroxy-1-piperazinyl)-5-oxo-5H-thiazolo[3,2-a]quinoline-4-carboxylic acid.1/4hydrate]",1.56,,0.2,0.1,0.2,0.1,0.2,6.25,0.1,0.2,0.05,1.56,1.56,0.78,0.05,0.78,0.05,0.39,1.56,1.56,"MIC ([2]; Bacillus subtilis, ATCC6633, read-out: Minimum inhibitory concentration (MIC)): 0.1 µg/mL; MIC [18, 22]: 0.025 µg/mL; MIC [15, 21]: 0.39 µg/mL"
"O=C(O)c1c(=O)c2cc(F)c(N3CCCC3)c3c2n2c(csc12)CO3 [Compound (G), 9,1-Epoxymethano-7-fluoro-8-(1-pyrrolidinyl)-5-oxo-5H-thiazolo[3,2-a]quinoline-4-carboxylic acid]",0.2,0.025,3.13,0.1,0.39,0.2,0.2,3.13,0.2,0.39,0.1,1.56,1.56,0.78,0.1,1.56,0.1,0.025,0.05,0.2,"MIC [18, 22]: 0.1 µg/mL; MIC ([15]; Staphylococcus aureus, IID803, read-out: Minimum inhibitory concentration (MIC)): 0.05 µg/mL"
"O=C(O)c1c(=O)c2cc(F)c(N3CCC(O)C3)c3c2n2c(csc12)CO3 (stereo not drawn) [Compound (H), 9,1-Epoxymethano-7-fluoro-8-(3-hydroxy-1-pyrrolidinyl)-5-oxo-5H-thiazolo[3,2-a]quinoline-4-carboxylic acid]",0.1,0.006,0.39,0.1,0.1,0.05,0.05,0.78,0.1,0.1,0.0125,0.39,0.39,0.39,0.0125,0.39,0.05,0.025,0.2,0.2,"MIC [18, 22]: 0.006 µg/mL; MIC [15, 21]: 0.025 µg/mL"
"NC1CCN(c2c(F)cc3c(=O)c(C(=O)O)c4scc5n4c3c2OC5)C1 (stereo not drawn) [Compound (I), 9,1-Epoxymethano-7-fluoro-8-(3-amino-1-pyrrolidinyl)-5-oxo-5H-thiazolo[3,2-a]quinoline-4-carboxylic acid]",0.78,0.2,0.2,0.1,0.2,0.1,0.2,1.56,0.2,0.39,0.2,0.78,0.78,0.39,0.1,0.78,0.1,0.2,0.78,0.78,"MIC ([18]; PCI602, read-out: Minimum inhibitory concentration (MIC)): 0.05 µg/mL; MIC [15, 21]: 0.39 µg/mL"
